Experimental data: US20060074243A1, “Hydroxamic acid and amide compounds and their use as protease inhibitors” (Pharmacia Corporation, priority 2002, published 2006)

Target: T1, Human recombinant MMP-13 (Homo sapiens, UniProt P45452)
T1 construct: made in house; host or cells: baculovirus / insect cells
Experiment: In vitro MMP inhibition analysis (fluorogenic peptide substrate cleavage), Ki
Assay type: biochemical
Conditions: Table 2
Protocol: Several compounds and salts were analyzed in an in vitro assay to determine their ability to inhibit the MMP cleavage of peptide substrates. Inhibition constant (Ki) were calculated from the assayed compound-MMP interactions.
Human recombinant MMP-1, MMP-2, MMP-9, MMP-13, and MMP-14 were used in this assay. All enzymes were prepared in Assignee's laboratories following usual laboratory procedures. Protocols for the preparation and use of these enzymes are available in the scientific literature. See, e.g., Enzyme Nomenclature (Academic Press, San Diego, Calif., 1992) (and the citations therein). See also, Frije et al., J. Biol. Chem., 26(24), 16766-73 (1994).
The MMP-13 was obtained as a proenzyme from a full-length cDNA clone using baculovirus, as described by V. A. Luckow, “Insect Cell Expression Technology,” Protein Engineering: Principles and Practice, pp. 183-218 (edited by J. L. Cleland et al., Wiley-Liss, Inc., 1996). The expressed proenzyme was first purified over a heparin agarose column, and then over a chelating zinc chloride column. The proenzyme was then activated by APMA for use in the assay. Further details on baculovirus expression systems may be found in, for example, Luckow et al., J. Virol., 67, 4566-79 (1993). See also, O'Reilly et al, Baculovirus Expression Vectors: A Laboratory Manual (W.H. Freeman and Co., New York, N.Y., 1992). See also, King et al., The Baculovirus Expression System: A Laboratory Guide (Chapman & Hall, London, England, 1992).
All MMPs were activated using 4-aminophenylmercuric acetate (“APMA”, Sigma Chemical, St. Louis, Mo.) or trypsin. MMP-9 also was activated using human recombinant MMP-3 (purified in Assignee's laboratory following standard cloning and purification techniques).
The following fluorogenic, methoxycoumarin-containing polypeptide substrate (I) was used in the MMP inhibition assays: MCA-ArgProLeuGlyLeuDpaAlaArgGluArgNH2 (I) “MCA” is 7-methoxycoumarin-4-yl acetyl. Substrate (I) was prepared Assignee's laboratory. In the absence of MMP inhibitory activity, the substrate is cleaved at the Gly-Leu peptide bond. This cleavage separates the highly fluorogenic peptide from the 2,4-dinitrophenyl quencher, thus resulting in increase of fluorescent intensity.
The stock solutions of the assayed compounds and salts were prepared in […] (DMSO). These stock solutions were diluted in Buffer A (100 mM Tris-HCl, 100 mM NaCl, 10 mM CaCl2, 0.05% polyoxyethylene 23 lauryl ether, pH 7.5) to obtain solutions with different compound concentrations, i.e., assay solutions with different concentrations of the assayed […] compound. The experiment controls contained the same amount of Buffer A/DMSO as the assayed sample, but contained none of the tested compound or salt.
The assays from which the Ki determinations were made were performed as follows. The assayed compound samples were incubated in separate wells of untreated white polystyrene plates (Nunc Nalgene International, Rochester, N.Y.), and analyzed on a Tecan SpectraFlour Plus plate reader. The excitation wavelength was 330 nm, and the emission wavelength—420 nm. All samples (assayed compounds and controls) were incubated in separate plate wells at room temperature for 1 hr in the presence of 4 μM of MMP substrate (I). In the absence of MMP inhibitory activity, substrate (I) was cleaved at the Gly-Leu bond resulting in an increase of relative fluorescence. Inhibition was observed as a reduced rate of this increase in relative fluorescence. […] This protocol is a modification of method by Knight et al., FEBS Lett., 296(3), 263-266 (1992). Apparent inhibitory constants were determined by non-linear regression of reaction velocity as a function of inhibitor and enzyme concentration using Morrison's equation, as described by Kuzmic, Anal. Biochem. 286, 45-50 (2000). […]

SMILES	Ki [nM]
O=C(NO)C1(S(=O)(=O)c2ccc(-c3nc4ccccc4s3)cc2)CCOCC1 [Example 195]	7.2
C#CCN(C)C(=O)c1ccc2cc(-c3ccc(S(=O)(=O)C4(C(=O)NO)CCOCC4)cc3)ccc2c1 [Example 216]	0.572
CCCCNC(=O)c1ccc(-c2ccc(S(=O)(=O)C3(C(=O)NO)CCOCC3)cc2)nc1 [Example 203]	0.375
O=C(NC1CCCC1)c1ccc(-c2ccc(S(=O)(=O)C3(C(=O)NO)CCOCC3)cc2)nc1 [Example 198]	0.323
CCNc1cnc(-c2ccc(S(=O)(=O)C3(C(=O)NO)CCOCC3)cc2)cn1 [Example 93]	4.45
CC[C@@H](C)NC(=O)c1ccc(-c2ccc(S(=O)(=O)C3(C(=O)NO)CCOCC3)cc2)nc1 [Example 207]	0.729
O=C(NO)C1(S(=O)(=O)c2ccc(-c3nc4ccccc4o3)cc2)CCOCC1 [Example 193]	1.69
O=C(NO)C1(S(=O)(=O)c2ccc(-c3ccc(CCC(F)(F)C(F)(F)F)cc3)cc2)CCS(=O)(=O)CC1 [Example 167]	0.74
COCCN1CCC(C(=O)NO)(S(=O)(=O)c2ccc(-c3cnc(OCCC4CCCC4)cn3)cc2)CC1 [Example 200]	0.144
O=C(NCC1CC1)c1ccc2cc(-c3ccc(S(=O)(=O)C4(C(=O)NO)CCOCC4)cc3)ccc2c1 [Example 220]	0.259
O=C(NCC1CC1)c1cnc(-c2ccc(S(=O)(=O)C3(C(=O)NO)CCOCC3)cc2)cn1 [Example 191]	0.24
CCN1CCC(C(=O)NO)(S(=O)(=O)c2ccc(-c3cnc(CCC(F)(F)F)cn3)cc2)CC1 [Example 213]	1.41
COCCOC1CCC(C(=O)NO)(S(=O)(=O)c2ccc(-c3cnc(CCCC(F)(F)F)cn3)cc2)CC1 (stereo not shown) [Example 210]	0.151
O=C(NO)C1(S(=O)(=O)c2ccc(-c3cnc(OCCC4CCCC4)cn3)cc2)CCOCC1 [Example 180]	0.15
CCC(C)COc1ccc(-c2ccc(S(=O)(=O)C3(C(=O)NO)CCOCC3)cc2)cc1C(F)(F)F (stereo not shown) [Example 92]	29.7
CC(C)(C)NC(=O)c1ccc(-c2ccc(S(=O)(=O)C3(C(=O)NO)CCOCC3)cc2)nc1 [Example 205]	1.19
CC[C@H](C)NC(=O)c1ccc(-c2ccc(S(=O)(=O)C3(C(=O)NO)CCOCC3)cc2)nc1 [Example 208]	0.715
CCCCc1ccc(-c2ccc(S(=O)(=O)C3(C(=O)NO)CCOCC3)cc2)cc1 [Example 91]	0.217
O=C(NCC(F)(F)C(F)(F)F)c1cnc(-c2ccc(S(=O)(=O)C3(C(=O)NO)CCOCC3)cc2)cn1 [Example 192]	0.22

SMILES	Ki [nM]
COCCN1CCC(C(=O)NO)(S(=O)(=O)c2ccc(-c3cnc(CCC(F)(F)F)cn3)cc2)CC1 [Example 214]	0.661
O=C(c1ccc2cc(-c3ccc(S(=O)(=O)C4(C(=O)NO)CCOCC4)cc3)ccc2c1)N1CCOCC1 [Example 222]	0.612
O=C(NO)C1(S(=O)(=O)c2ccc(-c3ccc(OCC(F)(F)C(F)(F)F)c(C(F)(F)F)c3)cc2)CCOCC1 [Example 90]	19.7
O=C(c1ccc2cc(-c3ccc(S(=O)(=O)C4(C(=O)NO)CCOCC4)cc3)ccc2c1)N1CCCCC1 [Example 223]	0.97
O=C(NO)C1(S(=O)(=O)c2ccc(-c3cnc(CCC(F)(F)F)cn3)cc2)CCN(C2CC2)CC1 [Example 215]	0.356
O=C(N1CCOCC1)N1CCC(C(=O)NO)(S(=O)(=O)c2ccc(-c3ccc(CCC(F)(F)C(F)(F)F)cc3)cc2)CC1 [Example 171]	0.23
O=C(Cc1ccc(-c2ccc(S(=O)(=O)C3(C(=O)NO)CCOCC3)cc2)nc1)N1CCCCC1 [Example 212]	0.679
CN(C)C(=O)N1CCC(C(=O)NO)(S(=O)(=O)c2ccc(-c3ccc(CCC(F)(F)C(F)(F)F)cc3)cc2)CC1 [Example 173]	0.32
O=C(NO)C1(S(=O)(=O)c2ccc(-c3cnc(-n4cccc4)cn3)cc2)CCOCC1 [Example 94]	0.428
O=C(NO)C1(S(=O)(=O)c2ccc(-c3ccccc3CO)cc2)CCOCC1 [Example 197]	1080
CC(C)CCOc1ccc(-c2ccc(S(=O)(=O)C3(C(=O)NO)CCOCC3)cc2)cc1C(F)(F)F [Example 86]	36.2
CC(C)CCc1cnc(-c2ccc(S(=O)(=O)C3(C(=O)NO)CCOCC3)cc2)cn1 [Example 169]	0.24
O=C(N1CCCCC1)N1CCC(C(=O)NO)(S(=O)(=O)c2ccc(-c3ccc(CCC(F)(F)C(F)(F)F)cc3)cc2)CC1 [Example 175]	0.71
O=C(NO)C1(S(=O)(=O)c2ccc(-c3cnc(CCCC(F)(F)F)cn3)cc2)CCN(C2CC2)CC1 [Example 218]	0.267
CCCCNC(=O)c1cnc(-c2ccc(S(=O)(=O)C3(C(=O)NO)CCOCC3)cc2)cn1 [Example 184]	0.21
O=C(NO)C1(S(=O)(=O)c2ccc(-c3ccc(OCC(F)(F)C(F)(F)F)cc3)cc2)CCOCC1 [Example 95]	0.155
CCCCNc1cnc(-c2ccc(S(=O)(=O)C3(C(=O)NO)CCOCC3)cc2)cn1 [Example 83]	1.31
CCCCc1cnc(-c2ccc(S(=O)(=O)C3(C(=O)NO)CCN(CCOC)CC3)cc2)cn1 [Example 206]	0.41
O=C(NO)C1(S(=O)(=O)c2ccc(-c3ccc(F)c(C(F)(F)F)c3)cc2)CCOCC1 [Example 84]	1.85

Stronger by Ki, values ahead:

Ki [nM]	SMILES
0.13	CO[C@H]1CC[C@](C(=O)NO)(S(=O)(=O)c2ccc(-c3cnc(CCC(F)(F)C(F)(F)F)cn3)cc2)CC1 [Example 183]
0.13	O=C(NO)C1(S(=O)(=O)c2ccc(-c3ccc(C(F)(F)F)cn3)cc2)CCOCC1 [Example 82]
0.111	Cc1nc(CCc2ccc(-c3ccc(S(=O)(=O)C4(C(=O)NO)CCOCC4)cc3)cc2)no1 [Example 219]
0.1	COCCO[C@H]1CC[C@](C(=O)NO)(S(=O)(=O)c2ccc(-c3cnc(CCC(F)(F)C(F)(F)F)cn3)cc2)CC1 [Example 187]
0.091	CCc1ccc(-c2ccc(S(=O)(=O)C3(C(=O)NO)CCOCC3)cc2)cc1 [Example 79]
0.086	C#CCN1CCC(C(=O)NO)(S(=O)(=O)c2ccc(-c3ccc(CCC(F)(F)C(F)(F)F)cn3)cc2)CC1 [Example 199]
0.08	O=C(NO)C1(S(=O)(=O)c2ccc(-c3cnc(OCC4CCC4)cn3)cc2)CCOCC1 [Example 178]
0.08	O=C(NO)C1(S(=O)(=O)c2ccc(-c3ccc4c(c3)OCO4)cc2)CCOCC1 [Example 188]
0.08	CC(C)COc1cnc(-c2ccc(S(=O)(=O)C3(C(=O)NO)CCOCC3)cc2)cn1 [Example 170]
0.076	O=C(NO)C1(S(=O)(=O)c2ccc(-c3ccc(CCCC(F)(F)F)cn3)cc2)CC=CC1 [Example 202]
0.056	O=C(CCc1nccs1)c1ccc(-c2ccc(S(=O)(=O)C3(C(=O)NO)CCOCC3)cc2)cc1 [Example 211]
0.0485	CCCCOc1ccc(-c2ccc(S(=O)(=O)C3(C(=O)NO)CCOCC3)cc2)cc1 [Example 77]
0.0332	CCCCc1ccc(-c2ccc(S(=O)(=O)C3(C(=O)NO)CCOCC3)cc2)nc1 [Example 89]
0.03	CC(C)CC#Cc1cnc(-c2ccc(S(=O)(=O)C3(C(=O)NO)CCOCC3)cc2)cn1 [Example 166]
0.03	O=C(NO)C1(S(=O)(=O)c2ccc(-c3cnc(OCCC4CC4)cn3)cc2)CCOCC1 [Example 172]
0.029	COCCOC1CCC(C(=O)NO)(S(=O)(=O)c2ccc(-c3ccc(CCCC(F)(F)F)cn3)cc2)CC1 (stereo not shown) [Example 209]
0.02	O=C(NO)C1(S(=O)(=O)c2ccc(-c3ccc(CCC(F)(F)C(F)(F)F)cn3)cc2)CCOCC1 [Example 201]
